Tested on: K12877-001-R-J1-PDC complex spheroid viability
Assay: Anticancer human tumor K12877-001-R-J1-PDC patient-derived lung adenocarcinoma cell line growth inhibition [RAS]
Settings: for IC50: curve of first compound; for viability, T/C: stronger effect = lower value; active = viability on the fitted dose curve at most 10% of control; inactive = the rest
In short: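 Agents were tested in combination matrices in half-log decrements from a top concentration at or near clinical Cmax (10 microM if undetermined). Targets were multi-cell spheroids of tumour lines plus HUVEC and MSC stromal cells.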

[1] = second compound 0.000949 µM, first compound 0.00316 µM
[2] = second compound 0.000949 µM, first compound 0.01 µM
[3] = second compound 0.000949 µM, first compound 0.0316 µM
[4] = second compound 0.000949 µM, first compound 0.1 µM
[5] = second compound 0.003 µM, first compound 0.00316 µM
[6] = second compound 0.003 µM, first compound 0.01 µM
[7] = second compound 0.003 µM, first compound 0.0316 µM
[8] = second compound 0.003 µM, first compound 0.1 µM
[9] = second compound 0.00949 µM, first compound 0.00316 µM
[10] = second compound 0.00949 µM, first compound 0.01 µM
[11] = second compound 0.00949 µM, first compound 0.0316 µM
[12] = second compound 0.00949 µM, first compound 0.1 µM
[13] = second compound 0.03 µM, first compound 0.00316 µM
[14] = second compound 0.03 µM, first compound 0.01 µM
[15] = second compound 0.03 µM, first compound 0.0316 µM
[16] = second compound 0.03 µM, first compound 0.1 µM
[17] = second compound 0.0949 µM, first compound 0.00316 µM
[18] = second compound 0.0949 µM, first compound 0.01 µM
[19] = second compound 0.0949 µM, first compound 0.0316 µM
[20] = second compound 0.0949 µM, first compound 0.1 µM
[21] = second compound 0.3 µM, first compound 0.00316 µM
[22] = second compound 0.3 µM, first compound 0.01 µM
[23] = second compound 0.3 µM, first compound 0.0316 µM
[24] = second compound 0.3 µM, first compound 0.1 µM
[25] = second compound 0.000949 µM, first compound 0.316 µM
[26] = second compound 0.000949 µM, first compound 1 µM
[27] = second compound 0.003 µM, first compound 0.316 µM
[28] = second compound 0.003 µM, first compound 1 µM
[29] = second compound 0.00949 µM, first compound 0.316 µM
[30] = second compound 0.00949 µM, first compound 1 µM
[31] = second compound 0.03 µM, first compound 0.316 µM
[32] = second compound 0.03 µM, first compound 1 µM
[33] = second compound 0.0949 µM, first compound 0.316 µM
[34] = second compound 0.0949 µM, first compound 1 µM
[35] = second compound 0.3 µM, first compound 0.316 µM
[36] = second compound 0.3 µM, first compound 1 µM
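Also: spheroids exposed to agents for one week before readout.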
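For viability, T/C in this document: tumour cells co-cultured with HUVEC and mesenchymal stem cells in spheroids.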

CC(C)n1nc(-c2ccc3oc(N)nc3c2)c2c(N)ncnc21 + CCn1c(-c2cc(N3CCN(C)CC3)cnc2C(C)OC)c2c3cc(ccc31)-c1csc(n1)CC(NC(=O)C1CC1C)C(=O)N1CCCC(N1)C(=O)OCC(C)(C)C2
9.11 nM: IC50 (second compound 0.0949 µM)
23.4 nM: IC50 (second compound 0.003 µM)
13.9 nM: IC50 (second compound 0.03 µM)
6.13 nM: IC50 (second compound 0.3 µM)
28.4 nM: IC50 (second compound 0.000949 µM)
inactive: viability, T/C (second compound 0.000949 µM, first compound 0.000316 µM) 73.8% | viability, T/C (second compound 0.000949 µM, first compound 0.001 µM) 74.5% | viability, T/C [1] 95.7% | viability, T/C [2] 104% | viability, T/C [3] 46.1% | viability, T/C [4] 24.8% | viability, T/C (second compound 0.003 µM, first compound 0.000316 µM) 71.2% | viability, T/C (second compound 0.003 µM, first compound 0.001 µM) 74% | viability, T/C [5] 69.9% | viability, T/C [6] 90.8% | viability, T/C [7] 40.6% | viability, T/C [8] 22.1% | viability, T/C (second compound 0.00949 µM, first compound 0.000316 µM) 64.1% | viability, T/C (second compound 0.00949 µM, first compound 0.001 µM) 65.4% | viability, T/C [9] 76.6% | viability, T/C [10] 75.4% | viability, T/C [11] 29.3% | viability, T/C [12] 17.3% | viability, T/C (second compound 0.03 µM, first compound 0.000316 µM) 77.1% | viability, T/C (second compound 0.03 µM, first compound 0.001 µM) 92.2% | viability, T/C [13] 110% | viability, T/C [14] 61.1% | viability, T/C [15] 28% | viability, T/C [16] 16.2% | viability, T/C (second compound 0.0949 µM, first compound 0.000316 µM) 103% | viability, T/C (second compound 0.0949 µM, first compound 0.001 µM) 102% | viability, T/C [17] 76.5% | viability, T/C [18] 49.1% | viability, T/C [19] 22.3% | viability, T/C [20] 13.6% | viability, T/C (second compound 0.3 µM, first compound 0.000316 µM) 79.1% | viability, T/C (second compound 0.3 µM, first compound 0.001 µM) 92.5% | viability, T/C [21] 60.3% | viability, T/C [22] 40.3% | viability, T/C [23] 19.3% | viability, T/C [24] 11.7%
17.7 nM: IC50 (second compound 0.00949 µM)

CCN1CCN(Cc2ccc(Nc3ncc(F)c(-c4cc(F)c5nc(C)n(C(C)C)c5c4)n3)nc2)CC1 + CCn1c(-c2cc(N3CCN(C)CC3)cnc2C(C)OC)c2c3cc(ccc31)-c1csc(n1)CC(NC(=O)C1CC1C)C(=O)N1CCCC(N1)C(=O)OCC(C)(C)C2
inactive: viability, T/C [1] 79.9% | viability, T/C [2] 84.1% | viability, T/C [3] 85% | viability, T/C [4] 92.5% | viability, T/C [25] 86.8% | viability, T/C [26] 73.2% | viability, T/C [5] 73.7% | viability, T/C [6] 72.1% | viability, T/C [7] 72.7% | viability, T/C [8] 69.3% | viability, T/C [27] 70.2% | viability, T/C [28] 45.3% | viability, T/C [9] 61.7% | viability, T/C [10] 61.3% | viability, T/C [11] 68.9% | viability, T/C [12] 70.8% | viability, T/C [29] 72% | viability, T/C [30] 34.6% | viability, T/C [13] 81.7% | viability, T/C [14] 86.8% | viability, T/C [15] 74.3% | viability, T/C [16] 89.8% | viability, T/C [31] 61.5% | viability, T/C [32] 28.1% | viability, T/C [17] 106% | viability, T/C [18] 97.9% | viability, T/C [19] 99.6% | viability, T/C [20] 86.5% | viability, T/C [33] 63% | viability, T/C [34] 32.3% | viability, T/C [21] 97% | viability, T/C [22] 86.2% | viability, T/C [23] 86.5% | viability, T/C [24] 76.2% | viability, T/C [35] 53.1% | viability, T/C [36] 26.1%
376 nM: IC50 (second compound 0.3 µM)
516 nM: IC50 (second compound 0.0949 µM)
803 nM: IC50 (second compound 0.003 µM)
469 nM: IC50 (second compound 0.03 µM)
578 nM: IC50 (second compound 0.00949 µM)
> 1000 nM: IC50 (second compound 0.000949 µM)

C[C@@H](NC(=O)c1ncnc(N)c1Cl)c1ncc(C(=O)Nc2cc(C(F)(F)F)c(Cl)cn2)s1 + CCn1c(-c2cc(N3CCN(C)CC3)cnc2C(C)OC)c2c3cc(ccc31)-c1csc(n1)CC(NC(=O)C1CC1C)C(=O)N1CCCC(N1)C(=O)OCC(C)(C)C2
> 10000 nM: IC50 (second compound 0.000949 µM) | IC50 (second compound 0.003 µM) | IC50 (second compound 0.00949 µM) | IC50 (second compound 0.03 µM) | IC50 (second compound 0.0949 µM) | IC50 (second compound 0.3 µM)
inactive: viability, T/C [3] 85.3% | viability, T/C [4] 85.3% | viability, T/C [25] 81.8% | viability, T/C [26] 84.3% | viability, T/C (second compound 0.000949 µM, first compound 3.16 µM) 89.9% | viability, T/C (second compound 0.000949 µM, first compound 10 µM) 75.3% | viability, T/C [7] 72.5% | viability, T/C [8] 78.3% | viability, T/C [27] 70.8% | viability, T/C [28] 83.6% | viability, T/C (second compound 0.003 µM, first compound 3.16 µM) 77.2% | viability, T/C (second compound 0.003 µM, first compound 10 µM) 83.2% | viability, T/C [11] 66.4% | viability, T/C [12] 62.7% | viability, T/C [29] 67.8% | viability, T/C [30] 69.5% | viability, T/C (second compound 0.00949 µM, first compound 3.16 µM) 70.1% | viability, T/C (second compound 0.00949 µM, first compound 10 µM) 68.8% | viability, T/C [15] 62.2% | viability, T/C [16] 58.3% | viability, T/C [31] 60% | viability, T/C [32] 68.3% | viability, T/C (second compound 0.03 µM, first compound 3.16 µM) 66.3% | viability, T/C (second compound 0.03 µM, first compound 10 µM) 112% | viability, T/C [19] 101% | viability, T/C [20] 89.7% | viability, T/C [33] 97.8% | viability, T/C [34] 106% | viability, T/C (second compound 0.0949 µM, first compound 3.16 µM) 129% | viability, T/C (second compound 0.0949 µM, first compound 10 µM) 121% | viability, T/C [23] 100% | viability, T/C [24] 100% | viability, T/C [35] 103% | viability, T/C [36] 111% | viability, T/C (second compound 0.3 µM, first compound 3.16 µM) 97.8% | viability, T/C (second compound 0.3 µM, first compound 10 µM) 111%

Reference: PubChem BioAssay AID2060894 (Molecular Pharmacology Branch, DTP, NCI, 2025)
